No end group written: not given here.
Legend:
COMMD4 = experiment: FLAG pull-down in control and COMMD4 siRNA depleted cells; format: binding; conditions: overexpressed FLAG-H2B after control or COMMD4 siRNA
Protocol: (§1) For siRNA transfections, cells were transfected with negative control or COMMD4 siRNA #2 (CCAUGUCCCUCUCAGCAGA[dT][dT] MISSION® siRNA, Sigma-Aldrich) using RNAiMax (Life Technologies) as previously described and samples were analysed 48 to 72 h post-transfection. The H2B wild-type (FLAG-H2BWT) and mutant (FLAG-H2BMUT1) expression constructs were generated with the 10-amino acid peptide and the corresponding mutant cloned into the expression vector pCDNA3.1/(+)-N-DYK containing an N-terminal FLAG tag and a C-terminal nuclear localisation signal (AAKRVKLDS) (GenScript). A70K FLAG-COMMD4 expression construct was generated by mutating the corresponding COMMD4-FLAG construct to harbour an A70K mutation (GenScript). Cells were mock-transfected, or transfected with FLAG-H2BWT/FLAG-H2BMUT1, or COMMD4-FLAG/A70K with FuGENE® HD (Promega) using the manufacturer’s protocol and analysed 24 h post-transfection.
Co-immunoprecipitations were performed as previously summarised, using ice-cold NP40 buffer. Assays for co-immunoprecipitations were performed at 4 °C from HEK293T, transiently expressing the FLAG-H2B WT or MUT plasmid. Proteins were captured using anti-FLAG M2 Dynabeads (ThermoFisher) and washed three times in NP40 buffer prior to analysis.
To support predicted models, we next designed peptides to perform mapping. […]

HBEC3-KT cells [1] = experiment: Mitotic catastrophe (emerin and phalloidin staining), HBEC3-KT cells; format: cell-based, Human; conditions: 100 cells counted
Protocol: as §1, with “A70K FLAG-COMMD4 expression construct was generated by mutating the corresponding COMMD4-FLAG construct to harbour an A70K mutation (GenScript).” left out
NSCLC cells were grown in 96-well plates as above and stained with anti-emerin antibody and phalloidin. Mitotic catastrophe was scored as previous. A minimum of 100 cells for each experimental condition were assessed to determine the percentage of aberrant nuclei.
As previously determined, in this study, we used two markers to determine mitotic catastrophe: emerin staining of the nuclear envelope and phalloidin staining of the F-actin cytoskeleton. […] We subsequently measured apoptosis by staining for Annexin V and propidium iodide via flow cytometry in FLAG-H2B WT, FLAG-H2BMUT1 and mock-transfected control and NSCLC cells (Fig. 5c, d). […]

[2] = tested on: H460, H1299 and CRL5889 NSCLC cells; experiment: Annexin V-FITC / propidium iodide apoptosis, NSCLC cells; format: cell-based; conditions: flow cytometry, three independent experiments
Protocol: as §1, with “A70K FLAG-COMMD4 expression construct was generated by mutating the corresponding COMMD4-FLAG construct to harbour an A70K mutation (GenScript).” left out
The Annexin V-FITC apoptosis kit (United Bioresearch, ALX-850-020-K101, Enzo Life Sciences, Farmingdale, NY, USA) was used to measure viable and apoptotic cells, as previously described. […] CytExpert 2.0 software was used for data acquisition and analysed using the FlowJo v10 software.
Fig. 5 Induction of mitotic catastrophe and apoptosis in NSCLC cells. a Emerin and phalloidin staining respectively in three NSCLC and control HBEC3-KT cells. […] Asterix (*) denotes *P < 0.05 and ** P < 0.005 from 100 cells counted. […] The live cells were stained with Annexin V-FITC and propidium iodide and analysed by flow cytometer. […]

HBEC3-KT cells [3] = experiment: Immunofluorescence γH2AX and MDC1 foci, HBEC3-KT cells; format: cell-based, Human; conditions: 6 Gy IR, 50 cells per condition, three independent experiments
Protocol: as §1
NSCLC and control cells transfected with siRNA or H2B plasmids were grown in optical glass bottom 96-well plates (Cellvis). Post-treatment, cells were pre-extracted with ice-cold extraction buffer (20 mM HEPES (pH 8), 20 mM NaCl, 5 mM MgCl2, 1 mM ATP, 0.5% NP40), to remove the soluble proteins and processed as previous. […] Images were analysed using the InCarta Image Analysis software (GE Healthcare Life Sciences) where a minimum of 50 nuclei were quantified per experiment. […]

## FLAG-H2BWT: 10-amino acid peptide cloned into expression vector containing an N-terminal FLAG tag and a C-terminal nuclear localisation signal ({FLAG}-SFVNDIFERIAAKRVKLDS)
COMMD4
  binding to COMMD4 in control or COMMD4 siRNA-depleted cells: binding to COMMD4 was only possible in control siRNA-depleted cells
HBEC3-KT cells [1]
  aberrant nuclei / mitotic catastrophe: also underwent mitotic catastrophe, but to a lesser extent than the NSCLC cell lines
[2]
  early and late apoptosis: significantly increased early and late apoptosis compared to FLAG-H2BMUT1 and mock-transfected cells
HBEC3-KT cells [3]
  γH2AX and MDC1 (DNA repair) foci: exhibited increased DNA repair foci
